Biological target: free peptide Cys-Lys-D-Ala-D-Ala
Test: SPR binding to immobilized free peptide
Details: read-out: KD values from the current work, Free peptide, equilibrium fit, 25 °C

Row | Kd | Compound
1 | 855 ± 100 nM | CN[C@H]1C(=O)N[C@@H]2Cc3ccc(cc3)Oc3cc4cc(c3O[C@@H]3O[C@H](C(=O)O)[C@@H](O)[C@H](O)[C@H]3NC(=O)CCCCCCCCC(C)C)Oc3ccc(cc3Cl)[C@@H](O)[C@@H]3NC(=O)[C@H](NC(=O)[C@@H]4NC(=O)[C@@H](NC2=O)c2cc(cc(O)c2Cl)Oc2cc1ccc2O)c1ccc(O)c(c1)-c1c(O[C@H]2O[C@H](CO)[C@@H](O)[C@H](O)[C@@H]2O)cc(O)cc1[C@@H](C(=O)NCCCN(C)C)NC3=O [Dalbavancin]
2 | 2420 ± 680 nM | Ristocetin

Row | Compound | Kd
3 | CN[C@H](CC(C)C)C(=O)N[C@H]1C(=O)N[C@@H](CC(N)=O)C(=O)N[C@H]2C(=O)N[C@H]3C(=O)N[C@H](C(=O)N[C@H](C(=O)O)c4cc(O)cc(O)c4-c4cc3ccc4O)[C@H](O)c3ccc(c(Cl)c3)Oc3cc2cc(c3O[C@@H]2O[C@H](CO)[C@@H](O)[C@H](O)[C@H]2O[C@H]2C[C@](C)(N)[C@H](O)[C@H](C)O2)Oc2ccc(cc2Cl)[C@H]1O [Vancomycin] | 4160 ± 520 nM

From article PMC3304006 (Journal of the American Chemical Society, 2012)
